The target in experiment [1] is T1, full-length beta-Catenin (Uniprot ID P35222) (Homo sapiens, UniProt P35222).
T1 construct: 10 nM full-length beta-Catenin (Uniprot ID P35222)
T1 sequence (P35222 1-781): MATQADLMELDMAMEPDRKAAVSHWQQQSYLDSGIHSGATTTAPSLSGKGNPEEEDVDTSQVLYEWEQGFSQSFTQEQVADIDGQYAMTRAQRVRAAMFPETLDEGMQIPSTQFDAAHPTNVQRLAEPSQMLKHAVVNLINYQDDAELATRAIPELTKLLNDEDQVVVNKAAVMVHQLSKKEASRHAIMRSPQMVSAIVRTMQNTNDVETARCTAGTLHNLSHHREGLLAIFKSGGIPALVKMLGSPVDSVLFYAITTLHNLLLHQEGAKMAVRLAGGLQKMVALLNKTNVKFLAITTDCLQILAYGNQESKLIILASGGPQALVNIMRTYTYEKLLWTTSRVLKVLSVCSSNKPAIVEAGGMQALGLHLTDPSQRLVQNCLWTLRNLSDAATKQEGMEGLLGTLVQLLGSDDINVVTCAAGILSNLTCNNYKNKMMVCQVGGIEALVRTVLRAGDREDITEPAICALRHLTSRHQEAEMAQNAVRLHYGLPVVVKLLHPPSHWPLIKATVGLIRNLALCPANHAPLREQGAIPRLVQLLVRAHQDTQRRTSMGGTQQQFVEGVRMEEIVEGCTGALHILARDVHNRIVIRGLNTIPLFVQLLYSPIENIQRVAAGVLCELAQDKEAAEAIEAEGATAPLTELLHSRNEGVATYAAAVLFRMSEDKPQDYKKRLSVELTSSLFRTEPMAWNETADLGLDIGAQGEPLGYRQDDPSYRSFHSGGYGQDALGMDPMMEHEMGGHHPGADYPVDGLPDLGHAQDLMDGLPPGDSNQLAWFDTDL
Put plainly: Fluorescence polarization IC50 (beta-catenin / 5FAM-TCF4 10-53 competition). The settings on record: fluorescence polarization; read-out: beta-Catenin FP IC50. In kind it is binding. (Fluorescence polarisation rises when a labelled molecule tumbles more slowly, as on binding a larger partner.)

Experiment [2] concerns the target T2, beta-catenin/TCF4 engagement (Homo sapiens, UniProt P35222).
T2 construct: expressed in transfected cells; host or cells: HEK293
T2 sequence (P35222 1-781): T1 sequence (P35222 1-781)
Put plainly: Nano-BRET target engagement assay (B-cat-Halo & TCF4-Luc in HEK293 cells). Type of experiment: cell-based. Conditions: absolute IC50; read-out: NanoBRET Abs IC50. For orientation: BRET reads energy transfer from a luciferase to a nearby fluorophore.

As a reminder, the IC50 is the concentration needed to halve the response being measured. For the compound `CC(=O)N1CCC[C@]12CC=CCCCC1(CCCC=CCCCCCC[C@@](C)(C(=O)N[C@@H](Cc3ccccc3)C(=O)N[C@@H](Cc3csc4ccccc34)C(=O)N[C@@H](CCC(N)=O)C(N)=O)NC(=O)[C@H](CCC(N)=O)NC(=O)[C@H](Cc3ccccc3)NC(=O)[C@H](C)NC(=O)[C@H](C)NC(=O)[C@H](CCC(=O)O)NC(=O)[C@H](CC(=O)O)NC1=O)NC(=O)[C@H](Cc1ccccc1)NC(=O)[C@H](CC(=O)O)NC2=O` (stereo partly drawn) [I-1549, Ac-PL3-Asp-Phe-B5-Asp-Glu-Ala-Ala-Phe-Gln-S8-Phe-BztA-Gln-NH2], the values for the IC50 in experiment [1] and in experiment [2] were 13 nM and 11600 nM, respectively.
Take `CC(=O)N1CCC[C@]12CC=CCCCC1(CCCC=CCCCCCC[C@@](C)(C(=O)N[C@@H](Cc3ccccc3)C(=O)N[C@@H](Cc3csc4ccccc34)C(=O)N[C@@H](CCC(N)=O)C(N)=O)NC(=O)[C@H](CC(C)C)NC(=O)[C@H](Cc3ccccc3)NC(=O)[C@H](C)NC(=O)[C@H](C)NC(=O)[C@H](CCC(=O)O)NC(=O)[C@H](CC(=O)O)NC1=O)NC(=O)[C@H](Cc1ccccc1)NC(=O)[C@H](CC(=O)O)NC2=O` (stereo partly drawn) [I-1550, Ac-PL3-Asp-Phe-B5-Asp-Glu-Ala-Ala-Phe-Leu-S8-Phe-BztA-Gln-NH2]: the IC50 was found to be 22 nM in experiment [1] and 15300 nM in experiment [2].
Regarding `CC(=O)N1CCC[C@]12CC=CCCCC1(CCCC=CCCCCCC[C@@](C)(C(=O)N[C@@H](Cc3ccccc3)C(=O)N[C@@H](Cc3csc4ccccc34)C(=O)N[C@@H](CCC(N)=O)C(N)=O)NC(=O)[C@H](CCO)NC(=O)[C@H](Cc3ccccc3)NC(=O)[C@H](C)NC(=O)[C@H](C)NC(=O)[C@H](CCC(=O)O)NC(=O)[C@H](CC(=O)O)NC1=O)NC(=O)[C@H](Cc1ccccc1)NC(=O)[C@H](CC(=O)O)NC2=O` (stereo partly drawn) [I-1551, Ac-PL3-Asp-Phe-B5-Asp-Glu-Ala-Ala-Phe-Hse-S8-Phe-BztA-Gln-NH2], the IC50 in experiment [1] came out at 16 nM; in experiment [2] it was 19800 nM.
In the same order, the values of `CC(=O)N1CCC[C@]12CC=CCCCC1(CCCC=CCCCCCC[C@@](C)(C(=O)N[C@@H](Cc3ccccc3)C(=O)N[C@@H](Cc3csc4ccccc34)C(=O)N[C@@H](CCC(N)=O)C(N)=O)NC(=O)[C@H](CCC(N)=O)NC(=O)[C@H](Cc3ccccc3)NC(=O)[C@H](C)NC(=O)[C@H](C)NC(=O)[C@H](CCC(=O)O)NC(=O)[C@H](CC(=O)O)NC1=O)NC(=O)[C@H](CCCCN)NC(=O)[C@H](CC(=O)O)NC2=O` (stereo partly drawn) [I-1552, Ac-PL3-Asp-Lys-B5-Asp-Glu-Ala-Ala-Phe-Gln-S8-Phe-BztA-Gln-NH2] are 56 nM and more than 20000 nM.
`CC(=O)N1CCC[C@]12CC=CCCCC1(CCCC=CCCCCCC[C@@](C)(C(=O)N[C@@H](Cc3ccccc3)C(=O)N[C@@H](Cc3csc4ccccc34)C(=O)N[C@@H](CCC(N)=O)C(N)=O)NC(=O)[C@H](CC(C)C)NC(=O)[C@H](Cc3ccccc3)NC(=O)[C@H](C)NC(=O)[C@H](C)NC(=O)[C@H](CCC(=O)O)NC(=O)[C@H](CC(=O)O)NC1=O)NC(=O)[C@H](CCCCN)NC(=O)[C@H](CC(=O)O)NC2=O` (stereo partly drawn) [I-1553, Ac-PL3-Asp-Lys-B5-Asp-Glu-Ala-Ala-Phe-Leu-S8-Phe-BztA-Gln-NH2]: the figures for the IC50 in experiment [1] and in experiment [2] were 133 nM and more than 20000 nM, respectively.
Taken in the same sequence, the figures for `CC(=O)N1CCC[C@]12CC=CCCCC1(CCCC=CCCCCCC[C@@](C)(C(=O)N[C@@H](Cc3ccccc3)C(=O)N[C@@H](Cc3csc4ccccc34)C(=O)N[C@@H](CCC(N)=O)C(N)=O)NC(=O)[C@H](CCO)NC(=O)[C@H](Cc3ccccc3)NC(=O)[C@H](C)NC(=O)[C@H](C)NC(=O)[C@H](CCC(=O)O)NC(=O)[C@H](CC(=O)O)NC1=O)NC(=O)[C@H](CCCCN)NC(=O)[C@H](CC(=O)O)NC2=O` (stereo partly drawn) [I-1554, Ac-PL3-Asp-Lys-B5-Asp-Glu-Ala-Ala-Phe-Hse-S8-Phe-BztA-Gln-NH2] were 63 nM and more than 20000 nM.
Regarding `CC(=O)N1CCC[C@]12CC=CCCCC1(CCCC=CCCCOC(=O)N3CC[C@@](C(=O)N[C@@H](Cc4ccsc4)C(=O)N[C@@H](Cc4csc5ccccc45)C(=O)N[C@@H](CCC(N)=O)C(N)=O)(C3)NC(=O)[C@H](CC(N)=O)NC(=O)[C@H](Cc3ccccc3)NC(=O)[C@H](C)NC(=O)[C@H](C)NC(=O)[C@H](CC(N)=O)NC(=O)[C@H](CC(N)=O)NC1=O)NC(=O)[C@H](CC(C)(C)C)NC(=O)[C@H](CC(=O)O)NC2=O` (stereo partly drawn) [I-1555, Ac-PL3-Asp-Npg-B5-Asn-Asn-Ala-Ala-Phe-Asn-PyrS2-3Thi-BztA-Gln-NH2], the concentration for half-maximal inhibition (IC50) is 180 nM in experiment [1] and 29300 nM in experiment [2].
In the case of `CC(=O)N1CCC[C@]12CC=CCCCC1(CCCC=CCCCOC(=O)N3CC[C@@](C(=O)N[C@@H](Cc4ccsc4)C(=O)N[C@@H](Cc4csc5ccccc45)C(=O)N[C@@H](CCC(N)=O)C(N)=O)(C3)NC(=O)[C@H](CC(N)=O)NC(=O)[C@H](Cc3ccccc3)NC(=O)[C@H](C)NC(=O)[C@H](C)NC(=O)[C@H](CC(N)=O)NC(=O)[C@H](CC(N)=O)NC1=O)NC(=O)[C@H](C)NC(=O)[C@H](CC(=O)O)NC2=O` (stereo partly drawn) [I-1556, Ac-PL3-Asp-Ala-B5-Asn-Asn-Ala-Ala-Phe-Asn-PyrS2-3Thi-BztA-Gln-NH2], the IC50 in experiment [1] is 385 nM; in experiment [2], more than 20000 nM.
Consider `CC(=O)N1CCC[C@]12CC=CCCCC1(CCCC=CCCCOC(=O)N3CC[C@@](C(=O)N[C@@H](Cc4ccsc4)C(=O)N[C@@H](Cc4csc5ccccc45)C(=O)N[C@@H](CCC(N)=O)C(N)=O)(C3)NC(=O)[C@H](CC(C)C)NC(=O)[C@H](Cc3ccccc3)NC(=O)[C@H](C)NC(=O)[C@H](C)NC(=O)[C@H](CC(N)=O)NC(=O)[C@H](CC(N)=O)NC1=O)NC(=O)[C@H](CC(C)(C)C)NC(=O)[C@H](CC(=O)O)NC2=O` (stereo partly drawn) [I-1557, Ac-PL3-Asp-Npg-B5-Asn-Asn-Ala-Ala-Phe-Leu-PyrS2-3Thi-BztA-Gln-NH2], for which the 50% inhibitory concentration (IC50) in experiment [1] was 342 nM; in experiment [2], more than 20000 nM.
Consider `CC(=O)N1CCC[C@]12CC=CCCCC1(CCCC=CCCCOC(=O)N3CC[C@@](C(=O)N[C@@H](Cc4ccsc4)C(=O)N[C@@H](Cc4csc5ccccc45)C(=O)N[C@@H](CCC(N)=O)C(N)=O)(C3)NC(=O)[C@H](CC(N)=O)NC(=O)[C@H](Cc3ccccc3)NC(=O)[C@H](C)NC(=O)[C@H](C)NC(=O)[C@H]([C@@H](C)O)NC(=O)[C@H](CC(N)=O)NC1=O)NC(=O)[C@H](CC(C)(C)C)NC(=O)[C@H](CC(=O)O)NC2=O` (stereo partly drawn) [I-1564, Ac-PL3-Asp-Npg-B5-Asn-Thr-Ala-Ala-Phe-Asn-PyrS2-3Thi-BztA-Gln-NH2], for which the IC50 in experiment [1] was 122 nM; in experiment [2] it was more than 20000 nM.
Consider `CC(=O)N1CCC[C@]12CC=CCCCC1(CCCC=CCCCOC(=O)N3CC[C@@](C(=O)N[C@@H](Cc4ccsc4)C(=O)N[C@@H](Cc4csc5ccccc45)C(=O)N[C@@H](CCC(N)=O)C(N)=O)(C3)NC(=O)[C@H](CC(N)=O)NC(=O)[C@H](Cc3ccccc3)NC(=O)[C@H](C)NC(=O)[C@H](C)NC(=O)[C@H]([C@@H](C)O)NC(=O)[C@H](CC(N)=O)NC1=O)NC(=O)[C@H](CC(C)(C)C)NC(=O)[C@H](CC(=O)O)NC2=O` (stereo partly drawn) [I-1565, Ac-PL3-Asp-Npg-B5-Asn-Thr-Ala-Ala-Phe-Asn-PyrS2-3Thi-BztA-Gln-NH2], for which the results for the IC50 in experiment [1] and in experiment [2] were 148 nM and more than 20000 nM, respectively.

For the origin of these results see patent publication US20240116985A1, “STAPLED PEPTIDES AND METHODS THEREOF” (priority 2020, published 2024).
